Laboratory results: PubChem BioAssay (NCI)
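Here, GI50 denotes the concentration required for 50% inhibition of growth. TGI: total growth inhibition.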

Tests used:
Experiment in all cases: NCI tumour cell line growth inhibition, 384-well format
MDA-MB-435 melanoma = test system: MDA-MB-435 melanoma
MCF7 breast = test system: MCF7 breast
SR leukemia = test system: SR leukemia
HCT-15 colon = test system: HCT-15 colon
OVCAR-3 ovarian = test system: OVCAR-3 ovarian
SF-268 CNS = test system: SF-268 CNS
CAKI-1 renal = test system: CAKI-1 renal
UO-31 renal = test system: UO-31 renal
MDA-MB-231 breast = test system: MDA-MB-231 breast
LOX IMVI melanoma = test system: LOX IMVI melanoma
SNB-19 CNS = test system: SNB-19 CNS
NCI-H460 NSCLC = test system: NCI-H460 NSCLC
SF-295 CNS = test system: SF-295 CNS
TK-10 renal = test system: TK-10 renal
HCT-116 colon = test system: HCT-116 colon
A549 NSCLC = test system: A549 NSCLC
COLO 205 colon = test system: COLO 205 colon
MDA-MB-468 breast = test system: MDA-MB-468 breast
HS 578T breast = test system: HS 578T breast
DU-145 prostate = test system: DU-145 prostate
UACC-62 melanoma = test system: UACC-62 melanoma
EKVX NSCLC = test system: EKVX NSCLC
NCI-H226 lung = test system: NCI-H226 lung
MALME-3M melanoma = test system: MALME-3M melanoma
PC-3 prostate = test system: PC-3 prostate
SN12C renal = test system: SN12C renal
NCI-H522 lung = test system: NCI-H522 lung
ACHN renal = test system: ACHN renal
UACC-257 melanoma = test system: UACC-257 melanoma
NCI-H23 lung = test system: NCI-H23 lung
T-47D breast = test system: T-47D breast
HCC-2998 colon = test system: HCC-2998 colon
SK-OV-3 ovarian = test system: SK-OV-3 ovarian
RXF 393 renal = test system: RXF 393 renal
SK-MEL-5 melanoma = test system: SK-MEL-5 melanoma
SK-MEL-28 melanoma = test system: SK-MEL-28 melanoma
HT29 colon = test system: HT29 colon
M14 melanoma = test system: M14 melanoma
OVCAR-4 ovarian = test system: OVCAR-4 ovarian
NCI/ADR-RES ovarian = test system: NCI/ADR-RES ovarian
OVCAR-5 ovarian = test system: OVCAR-5 ovarian
786-0 renal = test system: 786-0 renal
A498 renal = test system: A498 renal
KM12 colon = test system: KM12 colon
HL-60(TB) leukemia = test system: HL-60(TB) leukemia
SK-MEL-2 melanoma = test system: SK-MEL-2 melanoma
MOLT-4 leukemia = test system: MOLT-4 leukemia

## Cc1ccc2c(N)c(C(=O)N[C@H]3CCc4cc(N5CC6CCC(C5)N6)ccc4C3)sc2n1
MDA-MB-435 melanoma
  GI50: 207 nM
  TGI: 804 nM
MCF7 breast
  GI50: 94.9 nM
  TGI: 1110 nM
SR leukemia
  GI50: 161 nM
  TGI: 298 nM
HCT-15 colon
  GI50: 260 nM
  TGI: 1030 nM
OVCAR-3 ovarian
  GI50: 129 nM
  TGI: 513 nM
SF-268 CNS
  GI50: 120 nM
  TGI: 501 nM
CAKI-1 renal
  GI50: 234 nM
  TGI: 1110 nM
UO-31 renal
  GI50: 349 nM
  TGI: 1270 nM
MDA-MB-231 breast
  GI50: 219 nM
  TGI: 972 nM
LOX IMVI melanoma
  GI50: 88.7 nM
  TGI: 268 nM
SNB-19 CNS
  GI50: 293 nM
  TGI: 2140 nM
NCI-H460 NSCLC
  GI50: 66.1 nM
  TGI: 548 nM
SF-295 CNS
  GI50: 335 nM
  TGI: 919 nM
TK-10 renal
  GI50: 253 nM
  TGI: 757 nM
HCT-116 colon
  GI50: 155 nM
  TGI: 925 nM
A549 NSCLC
  GI50: 222 nM
  TGI: 1060 nM
COLO 205 colon
  GI50: 164 nM
  TGI: 532 nM
MDA-MB-468 breast
  GI50: 206 nM
  TGI: 691 nM
HS 578T breast
  GI50: 180 nM
  TGI: 543 nM
DU-145 prostate
  GI50: 104 nM
  TGI: 605 nM
UACC-62 melanoma
  GI50: 241 nM
  TGI: 811 nM
EKVX NSCLC
  GI50: 251 nM
  TGI: 836 nM
NCI-H226 lung
  GI50: 178 nM
  TGI: 713 nM
MALME-3M melanoma
  GI50: 164 nM
  TGI: 443 nM
PC-3 prostate
  GI50: 222 nM
  TGI: 989 nM
SN12C renal
  GI50: 124 nM
  TGI: 647 nM
NCI-H522 lung
  GI50: 174 nM
  TGI: 487 nM
ACHN renal
  GI50: 101 nM
  TGI: 707 nM
UACC-257 melanoma
  GI50: 194 nM
  TGI: 775 nM
NCI-H23 lung
  GI50: 211 nM
  TGI: 594 nM
T-47D breast
  GI50: 269 nM
  TGI: 992 nM
HCC-2998 colon
  GI50: 246 nM
  TGI: 751 nM
SK-OV-3 ovarian
  GI50: 99 nM
  TGI: 940 nM
RXF 393 renal
  GI50: 116 nM
  TGI: 406 nM
SK-MEL-5 melanoma
  GI50: 111 nM
  TGI: 436 nM
SK-MEL-28 melanoma
  GI50: 269 nM
  TGI: 813 nM
HT29 colon
  GI50: 386 nM
  TGI: 4350 nM
M14 melanoma
  GI50: 104 nM
  TGI: 343 nM
OVCAR-4 ovarian
  GI50: 127 nM
  TGI: 460 nM
NCI/ADR-RES ovarian
  GI50: 326 nM
  TGI: 1190 nM
OVCAR-5 ovarian
  GI50: 277 nM
  TGI: 795 nM
786-0 renal
  GI50: 229 nM
  TGI: 997 nM
A498 renal
  GI50: 164 nM
  TGI: 892 nM
KM12 colon
  GI50: 228 nM
  TGI: 1200 nM
HL-60(TB) leukemia
  GI50: 32 nM
  TGI: 108 nM
SK-MEL-2 melanoma
  GI50: 121 nM
  TGI: 421 nM
MOLT-4 leukemia
  GI50: 35.1 nM
  TGI: 105 nM
